Legend:
A431 = test system: A431; design: method as in earlier work; conditions: monoculture, 72 h, PrestoBlue; ref SI3; cited from earlier work
MES-SA = test: Cytotoxicity in triple coculture, MES-SA mCherry; format: cell-based, human; conditions: MES-SA/B1, MES-SA/Dx5, 144 h
Protocol: (§1) Cell lines were purchased from the American Type Culture Collection (ATCC). MES-SA/B1 is a human MDR1-transfected derivative of MES-SA, and MES-SA mCherry, MES-SA/B1 mOrange, and MES-SA/Dx5 eGFP were engineered to stably express the respective fluorescent proteins previously.[62] Cells were kept in culture medium (DMEM) supplemented with 10% fetal bovine serum, 2 mM L-glutamine, 100 units/mL penicillin, and 100 μg/mL streptomycin (Thermo Fisher). One week before use, MES-SA/Dx5 eGFP cells were treated with 0.5 μM doxorubicin to ensure ABCB1/P-gp expression.
(§2) The tested compounds were dissolved in 50% (v/v) DMSO/PBS’ buffer to prepare 5–10 mM stock solutions, which were diluted in complete culture medium. Constitutive expression of the fluorescent proteins allowed multiplexing in cytotoxicity experiments.[62] Cells were mixed before seeding in 384-well plates: in double cocultures, MES-SA mCherry and MES-SA/Dx5 eGFP cells were seeded at 1250–1250 cells/well (in total 2500 cells/well); while in triple cocultures, MES-SA mCherry, MES-SA/Dx5 eGFP and MES-SA/B1 mOrange cells were seeded at 800–800–800 cells/well (in total 2400 cells/well). Serial dilutions of the compounds were added 24 h after seeding. To address the effect of P-gp function, TQ was added at a nontoxic concentration (0.4 μM) 15 min before the test compounds. The intensity of the fluorescent proteins, which is proportional to cell mass, was measured after 144 h of incubation at the respective fluorescent channels (excitation/emission: eGFP: 485 nm/510 nm; mOrange: 545 nm/567 nm; mCherry: 585 nm/610 nm). pIC50 values were calculated by a custom program written by Judit Sessler in C#.[62] IC50 values and standard deviation were calculated from average pIC50 values from at least 3 independent measurements.

MES-SA/Dx5 = test: Cytotoxicity in triple coculture, MES-SA/Dx5 eGFP; format: cell-based, human
Protocol: as §1, §2

Compound	IC50 (A431)	IC50 (MES-SA)	SR Dx5 = IC50 (MES-SA)/IC50 (MES-SA/Dx5) (MES-SA/Dx5)	IC50 (MES-SA/Dx5; 144 h)
Oc1c(CN2CCCCC2)cc(Cl)c2cccnc12 [HQCl-pip, 5-chloro-7-(piperidin-1-ylmethyl)quinolin-8-ol]	6.67 ± 1.69 µM			
[RhCp*(HQCl-Pip)Cl]Cl [(3)]		2.11 µM	11.1	0.19 µM
